From patent US11390631B1, “Benzodiazepine derivatives as RSV inhibitors” (priority 2015, dated 2022)

system: Human RSV-A (“Long” strain); assay: RSV-A assay: inhibition of cytopathic effect in Hep-2 cells, ATPlite readout; type: cell-based, Human respiratory syncytial virus (HRSV); details: Hep-2 cells, MOI 0.1, 5-day incubation, ATPlite; read-out: Human RSV-A (“Long” strain) EC50
In short: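 Cytopathic-effect protection was read as ATP content (ATPlite luminescence) after a 5-day incubation. Setup: Hep-2 cells at 8,000 per well, RSV-A Long at MOI 0.1, 2-fold serial compound dilutions in duplicate. Cytotoxicity (CC50) was measured on an identical uninfected plate run in parallel.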

Row | SMILES | EC50
1 | COC[C@H]1C[C@@H]1c1sc(C(F)(F)F)nc1-c1nnc(N[C@H]2N=C(c3ccccc3)c3ccccc3NC2=O)o1 [Example 395] | > 800 nM
2 | COCCCc1cc(C(F)(F)F)cnc1-c1nnc(N[C@H]2N=C(c3ccccc3)c3ccccc3NC2=O)o1 [Example 413] | > 800 nM
3 | O=C1Nc2ccccc2C(c2ccccc2)=N[C@@H]1Nc1nnc(-c2ncc(C(F)(F)F)cc2N[C@H]2CC[C@H]2O)o1 [Example 417] | > 800 nM
4 | O=C1Nc2ccccc2C(c2ccccc2)=N[C@@H]1Nc1nnc(-c2ncc(C(F)(F)F)cc2N[C@@H]2CC[C@@H]2O)o1 [Example 418] | > 800 nM
5 | O=C1Nc2ccccc2C(c2ccccc2)=N[C@@H]1Nc1ncc(-c2ncc(C(F)(F)F)cc2N2CCOCC2)o1 [Example 442] | < 400 nM
6 | O=C1Nc2ccccc2C(c2ccccc2)=N[C@@H]1Nc1nnc(-c2cn(-c3ccc(C(F)(F)F)nc3)nc2N2CCOCC2)o1 [Example 444] | < 400 nM
7 | O=C1Nc2ccccc2C(c2ccccc2)=N[C@@H]1Nc1nnc(-c2cn(CC3CC3)nc2N2CCOCC2)o1 [Example 446] | < 400 nM
8 | O=C1Nc2ccccc2C(c2ccccc2)=N[C@H]1Nc1nnc(-c2cn(CC3CC3)nc2N2CCOCC2)o1 [Example 447] | 400 to 800 nM

same assay, conditions: human respiratory syncytial virus, HEp-2, 120 h, read-out: Human RSV-A (“Long” strain) EC50

Row | SMILES | EC50
9 | O=C1Nc2ccccc2C(c2ccccc2)=NC1Nc1ccc(-c2ccccc2N2CCOCC2)nn1 (stereo not shown) [Example 378] | > 800 nM
10 | O=C1Nc2ccccc2C(c2ccccc2F)=NC1Nc1nnc(-c2ccc(F)cc2)o1 (stereo not shown) [Example 379] | > 800 nM
11 | O=C1Nc2ccccc2C(c2cccc(F)c2)=NC1Nc1nnc(-c2ccc(F)cc2)o1 (stereo not shown) [Example 380] | 400 to 800 nM
12 | N#Cc1cccc(C2=NC(Nc3nnc(-c4ccc(F)cc4)o3)C(=O)Nc3ccccc32)c1 (stereo not shown) [Example 381] | > 800 nM
13 | O=C1Nc2ccccc2C(c2ccc(F)cc2)=NC1Nc1nnc(-c2ccc(F)cc2)o1 (stereo not shown) [Example 382] | > 800 nM
14 | O=C1Nc2ccccc2C(c2ccccc2)=N[C@@H]1Nc1nnc(-c2cc(C(F)(F)F)sc2N2CCOCC2)o1 [Example 383] | < 400 nM
15 | O=C1Nc2ccccc2C(c2ccccc2)=N[C@@H]1Nc1nnc(-c2cc(C3CC3)sc2N2CCOCC2)o1 [Example 384] | < 400 nM
16 | O=C1Nc2ccccc2C(c2ccccc2)=N[C@@H]1Nc1nnc(-c2nc(-c3ccc(F)cn3)sc2N2CCOCC2)o1 [Example 389] | < 400 nM
17 | O=C1Nc2ccccc2C(c2ccccc2)=N[C@@H]1Nc1nnc(-c2nc(-c3ccc(C(F)(F)F)nc3)sc2N2CCOCC2)o1 [Example 390] | < 400 nM
18 | COCCCc1sc(C(F)(F)F)nc1-c1nnc(N[C@H]2N=C(c3ccccc3)c3ccccc3NC2=O)o1 [Example 396] | > 800 nM
19 | Cn1cc(-c2nc(-c3nnc(N[C@H]4N=C(c5ccccc5)c5ccccc5NC4=O)o3)c(N3CCOCC3)s2)cn1 [Example 399] | < 400 nM
20 | O=C1Nc2ccccc2C(c2ccccc2)=NC1Nc1nnc(-c2nc(Br)sc2N2CCOCC2)o1 (stereo not shown) [Example 400] | < 400 nM
21 | CCn1cc(-c2nnc(N[C@H]3N=C(c4ccccc4)c4ccccc4NC3=O)o2)c(N2CCOCC2)n1 [Example 401] | < 400 nM
22 | COCCn1cc(-c2nnc(N[C@H]3N=C(c4ccccc4)c4ccccc4NC3=O)o2)c(N2CCOCC2)n1 [Example 402] | < 400 nM
23 | O=C1Nc2ccccc2C(c2ccccc2)=N[C@@H]1Nc1nnc(-c2oc3ncccc3c2N2CCOCC2)o1 [Example 404] | < 400 nM
24 | O=C1Nc2ccccc2C(c2ccccc2)=N[C@@H]1Nc1nnc(-c2nc(C3CCCCC3)sc2N2CCOCC2)o1 [Example 405] | < 400 nM
25 | C#Cc1nc(-c2nnc(N[C@H]3N=C(c4ccccc4)c4ccccc4NC3=O)o2)c(N2CCOCC2)s1 [Example 406] | < 400 nM
26 | COc1ccc2nccc(-c3nnc(N[C@H]4N=C(c5ccccc5)c5ccccc5NC4=O)o3)c2c1 [Example 408] | > 800 nM
27 | COCc1ccc2nccc(-c3nnc(N[C@H]4N=C(c5ccccc5)c5ccccc5NC4=O)o3)c2c1 [Example 409] | > 800 nM
28 | COc1ccn2ncc(-c3nnc(N[C@H]4N=C(c5ccccc5)c5ccccc5NC4=O)o3)c2c1 [Example 410] | > 800 nM

Row | SMILES | EC50
29 | COCCc1cccn2ncc(-c3nnc(N[C@H]4N=C(c5ccccc5)c5ccccc5NC4=O)o3)c12 [Example 411] | > 800 nM
30 | COCC(C)(C)Nc1cc(C(F)(F)F)cnc1-c1nnc(N[C@H]2N=C(c3ccccc3)c3ccccc3NC2=O)o1 [Example 414] | > 800 nM
31 | COCC1(Nc2cc(C(F)(F)F)cnc2-c2nnc(N[C@H]3N=C(c4ccccc4)c4ccccc4NC3=O)o2)CC1 [Example 415] | > 800 nM
32 | COC(C)(C)CNc1cc(C(F)(F)F)cnc1-c1nnc(N[C@H]2N=C(c3ccccc3)c3ccccc3NC2=O)o1 [Example 416] | > 800 nM
33 | O=C1Nc2ccccc2C(c2ccccc2)=N[C@@H]1Nc1nnc(-c2ncc(C(F)(F)F)cc2NC[C@@H]2CCCO2)o1 [Example 419] | 400 to 800 nM
34 | O=C1Nc2ccccc2C(c2ccccc2)=N[C@@H]1Nc1nnc(-c2ncc(C(F)(F)F)cc2NC[C@H]2CCCO2)o1 [Example 420] | < 400 nM
35 | O=C1Nc2ccccc2C(c2ccccc2)=N[C@@H]1Nc1nnc(-c2ncc(C(F)(F)F)cc2NCc2ccco2)o1 [Example 421] | > 800 nM
36 | O=C1Nc2ccccc2C(c2ccccc2)=N[C@@H]1Nc1nnc(-c2ncc(C(F)(F)F)cc2N[C@H]2CCC[C@H]2O)o1 [Example 422] | 400 to 800 nM
37 | O=C1Nc2ccccc2C(c2ccccc2)=N[C@@H]1Nc1nnc(-c2ncc(C(F)(F)F)cc2N[C@@H]2CCC[C@@H]2O)o1 [Example 423] | 400 to 800 nM
38 | CC1(Nc2cc(C(F)(F)F)cnc2-c2nnc(N[C@H]3N=C(c4ccccc4)c4ccccc4NC3=O)o2)CCOC1 (stereo partly shown) [Example 424] | > 800 nM
39 | O=C1Nc2ccccc2C(c2ccccc2)=N[C@@H]1Nc1nnc(-c2cn(-c3cccnc3)nc2N2CCOCC2)o1 [Example 425] | < 400 nM
40 | COCCn1ccc2cccc(-c3nnc(N[C@H]4N=C(c5ccccc5)c5ccccc5NC4=O)o3)c21 [Example 426] | > 800 nM
41 | O=C1Nc2ccccc2C(c2ccccc2)=N[C@@H]1Nc1nnc(-c2nc(-c3ccccc3F)sc2N2CCOCC2)o1 [Example 427] | < 400 nM
42 | O=C1Nc2ccccc2C(c2ccccc2)=N[C@@H]1Nc1nnc(-c2nc(-c3ccc(F)cc3)sc2N2CCOCC2)o1 [Example 428] | < 400 nM
43 | O=C1Nc2ccccc2C(c2ccccc2)=N[C@@H]1Nc1nnc(-c2cn(C3CCC3)nc2N2CCOCC2)o1 [Example 430] | < 400 nM
44 | O=C1Nc2ccccc2C(c2ccccc2)=N[C@@H]1Nc1nnc(-c2cn(-c3ccccn3)nc2N2CCOCC2)o1 [Example 431] | < 400 nM
45 | Cc1cc(-c2nnc(N[C@H]3N=C(c4ccccc4)c4ccccc4NC3=O)o2)n(C2CCOCC2)n1 [Example 432] | > 800 nM
46 | O=C1Nc2ccccc2C(c2ccccc2)=N[C@@H]1Nc1nnc(-c2nc3ccccc3nc2N2CCOCC2)o1 [Example 433] | < 400 nM
47 | O=C1Nc2ccccc2C(c2ccccc2)=N[C@@H]1Nc1nnc(-c2cc3ccccc3nc2N2CCOCC2)o1 [Example 434] | < 400 nM
48 | N#Cc1ccc2nccc(-c3nnc(N[C@H]4N=C(c5ccccc5)c5ccccc5NC4=O)o3)c2c1 [Example 435] | > 800 nM

Row | SMILES | EC50
49 | CO[C@@H]1COC[C@H]1Nc1cc(C(F)(F)F)cnc1-c1nnc(N[C@H]2N=C(c3ccccc3)c3ccccc3NC2=O)o1 [Example 436] | < 400 nM
50 | CC(C)(O)c1nc(-c2nnc(N[C@H]3N=C(c4ccccc4)c4ccccc4NC3=O)o2)c(N2CCOCC2)s1 [Example 437] | < 400 nM
51 | COCCN1CCCn2ncc(-c3nnc(N[C@H]4N=C(c5ccccc5)c5ccccc5NC4=O)o3)c21 [Example 438] | 400 to 800 nM
52 | COC1C2CN(c3cc(C(F)(F)F)cnc3-c3nnc(N[C@H]4N=C(c5ccccc5)c5ccccc5NC4=O)o3)CC21 (stereo partly shown) [Example 439] | > 800 nM
53 | O=C1Nc2ccccc2C(c2ccccc2)=N[C@@H]1Nc1nnc(-c2cn(-c3ccc(C(F)(F)F)cn3)nc2N2CCOCC2)o1 [Example 440] | 400 to 800 nM
54 | N#Cc1ccn2ncc(-c3nnc(N[C@H]4N=C(c5ccccc5)c5ccccc5NC4=O)o3)c2c1 [Example 441] | > 800 nM
55 | O=C1Nc2ccccc2C(c2ccccc2)=NC1Nc1nnc(-c2cn(-c3ccc(F)cn3)nc2N2CCOCC2)o1 (stereo not shown) [Example 448] | < 400 nM
56 | COCc1ccn2ncc(-c3nnc(N[C@H]4N=C(c5ccccc5)c5ccccc5NC4=O)o3)c2c1 [Example 449] | > 800 nM
57 | O=C1Nc2ccccc2C(c2ccccc2)=NC1Nc1nnc(-c2ncc(C(F)(F)F)cc2CCO)o1 (stereo not shown) [Example 450] | > 800 nM
58 | COC[C@@H](C)Nc1sc(C(F)(F)F)nc1-c1nnc(N[C@H]2N=C(c3ccccc3)c3ccccc3NC2=O)o1 [Example 451] | 400 to 800 nM
59 | CO[C@@H](C)CNc1sc(C(F)(F)F)nc1-c1nnc(N[C@H]2N=C(c3ccccc3)c3ccccc3NC2=O)o1 [Example 452] | < 400 nM
60 | O=C1Nc2ccccc2C(c2ccccc2)=N[C@@H]1Nc1nnc(-c2nc(C(F)(F)F)sc2C2=CCOCC2)o1 [Example 453] | < 400 nM
61 | O=C1Nc2ccccc2C(c2ccccc2)=N[C@@H]1Nc1nnc(-c2nc(C(F)(F)C(F)(F)F)sc2N2CCOCC2)o1 [Example 454] | < 400 nM
62 | O=C1Nc2ccccc2C(c2ccccc2)=N[C@@H]1Nc1nnc(-c2nc(C3(O)CCC3)sc2N2CCOCC2)o1 [Example 455] | < 400 nM
63 | COC[C@H]1CCCN1c1sc(C(F)(F)F)nc1-c1nnc(N[C@H]2N=C(c3ccccc3)c3ccccc3NC2=O)o1 [Example 456] | > 800 nM
64 | COC[C@@H]1CCCN1c1sc(C(F)(F)F)nc1-c1nnc(N[C@H]2N=C(c3ccccc3)c3ccccc3NC2=O)o1 [Example 457] | > 800 nM
65 | CCOC1(c2nc(-c3nnc(N[C@H]4N=C(c5ccccc5)c5ccccc5NC4=O)o3)c(N3CCOCC3)s2)CCC1 [Example 458] | < 400 nM
66 | CC(C)(c1nc(-c2nnc(N[C@H]3N=C(c4ccccc4)c4ccccc4NC3=O)o2)c(N2CCOCC2)s1)N1CCOCC1 [Example 459] | < 400 nM
67 | O=C1Nc2ccccc2C(c2ccccc2)=N[C@@H]1Nc1nnc(-c2ncc(C(F)F)cc2N2CCOCC2)o1 [Example 461] | < 400 nM
